The record followed here is patent US20230277534A1 (Plexxikon Inc., priority 2011, published 2023).

For orientation: EC50 means the midpoint of the concentration-response curve. Usually IC50 stands for the concentration at which inhibition is half-maximal.

The test system of assay [1] is IPC-298 human melanoma cell line that expresses activated NRAS. As to the kind of experiment: IPC-298_P-ERK cell activation assay (phosphorylated ERK, AlphaScreen). The class given is cell-based. Conditions: IPC-298 cells, P-ERK activation. The method, then:
B9 is a squamous cell carcinoma cell line expressing activated HRAS that was isolated from a DMBA/TPA-induced mouse model of skin carcinogenesis (Stoler, et al. The Journal of Cell Biology, 1993, 122(5), 1103-17). IPC-298 is a human melanoma cell line that expresses activated NRAS (Aubert, et al. International Journal of Cancer, 1993, 54(5), 784-92). To determine whether compounds induce phosphorylated ERK and MEK, cells are plated in a 96-well dish and treated with an 8-point titration of compound for one hour at 37° C. The media is then removed and the cells are incubated with lysis buffer containing protease and phosphatase inhibitors. Phosphorylated ERK and MEK in the resulting lysates is detected using AlphaScreen™ technology. To detect phosphorylated ERK, cell lysates are incubated with streptavidin-coated donor beads, anti-mouse IgG acceptor beads, a biotinylated anti-ERK1/2 rabbit antibody, and a mouse antibody that recognizes ERK1/2 only when it is phosphorylated on Thr202 and Tyr204. The biotinylated ERK1/2 antibody will bind to both the streptavidin-coated donor beads and to ERK1/2 (regardless of its phosphorylation state), and the phospho-ERK1/2 antibody will bind to the acceptor beads and to ERK1/2 that is phosphorylated at Thr202/Tyr204. Excitation of the beads with laser light at 680 nm produces singlet oxygen, which is rapidly quenched unless the beads are in close proximity. When ERK is phosphorylated, both antibodies can bind the same protein, bringing the donor and acceptor beads into close proximity, producing a signal that can be measured at 580 nm. MEK phosphorylation is detected using a similar approach, only with antibodies directed against total MEK1/2 and MEK1/2 that is phosphorylated at Ser217 and Ser221.

The next assay concerns the target B-Raf V600E (Homo sapiens (Human), UniProt P15056, V600E). As to the kind of experiment: B-Raf V600E kinase biochemical activity assay (AlphaScreen, biotin-MEK1 substrate). Particulars: 100 μM ATP. In short, it runs like this: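 B-Raf V600E (0.1 ng) phosphorylated 100 nM biotin-MEK1 with 100 μM ATP (final) in HEPES pH 7.0 with Mg2+/Mn2+ for 45 min at room temperature. Compounds were tested over an 8-point serial dilution. Phospho-MEK1/2 was detected by AlphaScreen after 3 h with beads, and IC50 came from signal versus concentration.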
A general note: Bead proximity is the source of the signal in Alpha formats.

Assay [2] has as its system COLO205 colon adenocarcinoma cells (B-Raf V600E mutation). As to the kind of experiment: COLO205 cell growth inhibition (ATPlite). The class given is cell-based. Conditions: Homo sapiens, COLO 205, 72 h, 3 days. In short, it runs like this: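 Cells treated for 3 days at 37 °C, 5% CO2 with an 8-point 1:3 dilution series, top final concentration 10 μM, DMSO control. ATPlite luminescence used as a measure of cell number; IC50 from reading versus concentration.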

SMILES strings stand for the structures.

Chain of B-Raf V600E (P15056 whole entry V600E): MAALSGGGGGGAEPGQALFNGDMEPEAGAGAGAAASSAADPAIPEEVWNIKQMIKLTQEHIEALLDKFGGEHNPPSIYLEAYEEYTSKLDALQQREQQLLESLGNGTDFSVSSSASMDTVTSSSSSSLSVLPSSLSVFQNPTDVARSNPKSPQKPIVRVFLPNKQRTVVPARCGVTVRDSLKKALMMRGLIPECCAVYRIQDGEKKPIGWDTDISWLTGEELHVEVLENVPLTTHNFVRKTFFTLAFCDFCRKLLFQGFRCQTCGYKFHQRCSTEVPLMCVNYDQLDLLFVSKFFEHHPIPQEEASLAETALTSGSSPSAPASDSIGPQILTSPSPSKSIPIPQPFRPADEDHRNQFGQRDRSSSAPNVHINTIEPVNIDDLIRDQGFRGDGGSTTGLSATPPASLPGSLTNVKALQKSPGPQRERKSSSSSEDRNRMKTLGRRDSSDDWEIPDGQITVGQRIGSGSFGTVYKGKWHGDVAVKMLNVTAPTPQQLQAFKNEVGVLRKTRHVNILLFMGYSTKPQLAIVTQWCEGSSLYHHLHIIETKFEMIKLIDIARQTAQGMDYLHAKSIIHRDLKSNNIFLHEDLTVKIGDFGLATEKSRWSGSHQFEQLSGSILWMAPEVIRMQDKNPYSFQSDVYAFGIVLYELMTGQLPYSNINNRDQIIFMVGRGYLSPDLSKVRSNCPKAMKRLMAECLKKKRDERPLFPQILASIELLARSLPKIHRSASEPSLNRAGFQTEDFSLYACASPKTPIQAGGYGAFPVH

`COc1ncc(-c2cnc3[nH]cc(C(=O)c4c(F)ccc(NS(=O)(=O)c5cc(F)ccc5F)c4F)c3c2)cn1` yielded a 50% effective concentration (EC50) in assay [1] (compounds known in the art) below 1 µM.

`COc1ncc(-c2cnc3[nH]cc(C(=O)c4c(F)ccc(NS(=O)(=O)c5ccccc5F)c4F)c3c2)cn1` displayed an EC50 in assay [1] (compounds known in the art) below 0.5 µM.

Turning to `CCCS(=O)(=O)Nc1ccc(F)c(C(=O)c2c[nH]c3ncc(Cl)cc23)c1F`, the EC50 in assay [1] (compounds known in the art) was below 0.5 µM.

Regarding `O=C(c1c(F)ccc(NS(=O)(=O)N2CCCC2)c1F)c1c[nH]c2ncc(F)c(I)c12` [Compound P-0015, N-[2,4-difluoro-3-(5-fluoro-4-iodo-1H-pyrrolo[2,3-b]pyridine-3-carbonyl)phenyl]pyrrolidine-1-sulfonamide], at B-Raf V600E, the IC50 was below 0.1 µM. Moreover, the half-maximal effective concentration (EC50) in assay [1] (1 h, compound for one hour) is above 10 µM.

For the molecule `O=C(c1c(F)ccc(NS(=O)(=O)N2CCCC2)c1F)c1c[nH]c2ncc(-c3ccc(Cl)cc3)cc12` [Compound P-0021], the IC50 against B-Raf V600E was below 0.1 µM. This molecule also had a half-maximal effective concentration (EC50) in assay [1] (1 h, compound for one hour) above 10 µM.

For the molecule `CN(C)c1ncc(-c2cnc3[nH]cc(C(=O)c4c(F)ccc(NS(=O)(=O)N5CCCC5)c4F)c3c2)cn1` [Compound P-0022], in assay [1] (1 h, compound for one hour), the EC50 is above 10 µM.

Take `O=C(c1c(F)ccc(NS(=O)(=O)N2CCCC2)c1F)c1c[nH]c2ncc(I)cc12` [Compound P-0024]: the half-maximal effective concentration (EC50) in assay [1] (1 h, compound for one hour) was above 10 µM.

`CNS(=O)(=O)Nc1cccc(C(=O)c2c[nH]c3ncc(-c4cnc(OC)nc4)cc23)c1F` [Compound P-0026]: the 50% effective concentration (EC50) in assay [1] (1 h, compound for one hour) was above 10 µM.

As to `Cc1ccc(-c2cnc3[nH]cc(C(=O)c4cccc(NS(=O)(=O)N(C)C)c4F)c3c2)cn1` [Compound P-0029], the EC50 in assay [1] (1 h, compound for one hour) is above 10 µM.

With `CN(C)c1ccc(-c2cnc3[nH]cc(C(=O)c4cccc(NS(=O)(=O)N(C)C)c4F)c3c2)cn1` [Compound P-0030], the EC50 in assay [1] (1 h, compound for one hour) was above 10 µM.

The molecule `CCN(C)S(=O)(=O)Nc1cccc(C(=O)c2c[nH]c3ncc(-c4ccc(C#N)cc4)cc23)c1F` [Compound P-0031] had a concentration giving a half-maximal response (EC50) in assay [1] (1 h, compound for one hour) above 10 µM.

As for `CCN(C)S(=O)(=O)Nc1cccc(C(=O)c2c[nH]c3ncc(-c4cccnc4)cc23)c1F` [Compound P-0032], in assay [1] (1 h, compound for one hour), the half-maximal effective concentration (EC50) was above 10 µM.

In turn, `CCN(C)S(=O)(=O)Nc1cccc(C(=O)c2c[nH]c3ncc(-c4ccccc4)cc23)c1F` [Compound P-0036, 3-[3-[[ethyl(methyl)sulfamoyl]amino]-2-fluoro-benzoyl]-5-phenyl-1H-pyrrolo[2,3-b]pyridine] had a 50% inhibitory concentration (IC50) against B-Raf V600E below 0.1 µM. Moreover, in assay [1] (1 h, compound for one hour), the concentration for a half-maximal effect (EC50) is above 10 µM.

The molecule `CN(C)S(=O)(=O)Nc1cccc(C(=O)c2c[nH]c3ncc(-c4ccccc4)cc23)c1F` [Compound P-0037, 3-[3-(dimethylsulfamoylamino)-2-fluoro-benzoyl]-5-phenyl-1H-pyrrolo[2,3-b]pyridine] gave a half-maximal inhibitory concentration (IC50) against B-Raf V600E below 0.1 µM. In addition, the half-maximal effective concentration (EC50) in assay [1] (1 h, compound for one hour) is above 10 µM.

On B-Raf V600E, `COc1ncc(-c2cnc3[nH]cc(C(=O)c4cccc(NS(=O)(=O)N5CCC(OCc6ccccc6)C5)c4F)c3c2)cn1` (stereo not drawn) [Compound P-0041, 3-benzyloxy-N-[2-fluoro-3-[5-(2-methoxypyrimidin-5-yl)-1H-pyrrolo[2,3-b]pyridine-3-carbonyl]phenyl]pyrrolidine-1-sulfonamide] had an IC50 above 0.1 µM. In addition, the EC50 in assay [1] (1 h, compound for one hour) was above 10 µM.

On B-Raf V600E, `CN(C)c1ccc(-c2cnc3[nH]cc(C(=O)c4cccc(NS(=O)(=O)N5CCCC5)c4F)c3c2)cn1` [Compound P-0046, N-[3-[5-[6-(dimethylamino)-3-pyridyl]-1H-pyrrolo[2,3-b]pyridine-3-carbonyl]-2-fluoro-phenyl]pyrrolidine-1-sulfonamide] gave a half-inhibitory concentration (IC50) below 0.1 µM. This molecule gave an EC50 in assay [1] (1 h, compound for one hour) above 10 µM.

As to `CCN(C)S(=O)(=O)Nc1cccc(C(=O)c2c[nH]c3ncc(-c4ccc(C5(C#N)CC5)cc4)cc23)c1F` [Compound P-0061, 5-[4-(1-cyanocyclopropyl)phenyl]-3-[3-[[ethyl(methyl)sulfamoyl]amino]-2-fluoro-benzoyl]-1H-pyrrolo[2,3-b]pyridine], the IC50 on B-Raf V600E was below 0.1 µM. This molecule had an EC50 in assay [1] (1 h, compound for one hour) above 10 µM.

`CN1CCN(c2cccc(-c3cnc4[nH]cc(C(=O)c5cccc(NS(=O)(=O)N6CCCC6)c5F)c4c3)n2)CC1` [Compound P-0324, N-[2-fluoro-3-[5-[6-(4-methylpiperazin-1-yl)-2-pyridyl]-1H-pyrrolo[2,3-b]pyridine-3-carbonyl]phenyl]pyrrolidine-1-sulfonamide]: the values for the half-maximal inhibitory concentration (IC50) (against B-Raf V600E; in assay [2]) were below 0.1 µM and below 1 µM, respectively.

`COc1ccnc(-c2cnc3[nH]cc(C(=O)c4cccc(NS(=O)(=O)N5CCCC5)c4F)c3c2)n1` [Compound P-0325, N-[2-fluoro-3-[5-(4-methoxypyrimidin-2-yl)-1H-pyrrolo[2,3-b]pyridine-3-carbonyl]phenyl]pyrrolidine-1-sulfonamide]: the IC50 is below 0.1 µM against B-Raf V600E and above 1 µM in assay [2].

For `Cc1ccnc(-c2cnc3[nH]cc(C(=O)c4cccc(NS(=O)(=O)N5CCCC5)c4F)c3c2)n1` [Compound P-0326, N-[2-fluoro-3-[5-(4-methylpyrimidin-2-yl)-1H-pyrrolo[2,3-b]pyridine-3-carbonyl]phenyl]pyrrolidine-1-sulfonamide], the 50% inhibitory concentration (IC50) on B-Raf V600E was below 0.1 µM; in assay [2], above 1 µM.

On to `O=C(c1cccc(NS(=O)(=O)N2CC[C@@H](F)C2)c1F)c1c[nH]c2ncc(-c3cnc(C4CC4)nc3)cc12` [Compound P-0327, (3R)—N-[3-[5-(2-cyclopropylpyrimidin-5-yl)-1H-pyrrolo[2,3-b]pyridine-3-carbonyl]-2-fluoro-phenyl]-3-fluoro-pyrrolidine-1-sulfonamide], for which the IC50 against B-Raf V600E is below 0.1 µM; in assay [2] it was below 1 µM.

For the molecule `CCNS(=O)(=O)Nc1ccc(F)c(C(=O)c2c[nH]c3ncc(-c4cnc(C5CC5)nc4)cc23)c1F` [Compound P-0335, [5-(2-cyclopropylpyrimidin-5-yl)-1H-pyrrolo[2,3-b]pyridin-3-yl]-[3-(ethylsulfamoylamino)-2,6-difluoro-phenyl]methanone], the figures for the half-inhibitory concentration (IC50) (on B-Raf V600E; in assay [2]) were below 0.1 µM and below 1 µM, respectively.

On to `CCC(C)S(=O)(=O)Nc1ccc(F)c(C(=O)c2c[nH]c3ncc(-c4ccc(Cl)cc4)cc23)c1F` (stereo not drawn) [Compound P-0337, N-[3-[5-(4-chlorophenyl)-1H-pyrrolo[2,3-b]pyridine-3-carbonyl]-2,4-difluoro-phenyl]butane-2-sulfonamide], for which the half-maximal inhibitory concentration (IC50) was below 0.1 µM against B-Raf V600E and above 1 µM in assay [2].

Regarding `O=C(c1c(F)ccc(NS(=O)(=O)N2CC[C@@H](F)C2)c1F)c1c[nH]c2ncc(-c3cnc(C4CC4)nc3)cc12` [Compound P-0338, (3R)—N-[3-[5-(2-cyclopropylpyrimidin-5-yl)-1H-pyrrolo[2,3-b]pyridine-3-carbonyl]-2,4-difluoro-phenyl]-3-fluoro-pyrrolidine-1-sulfonamide], the results for the IC50 (against B-Raf V600E; in assay [2]) were below 0.1 µM and below 1 µM, respectively.

Take `O=C(c1c(F)ccc(NS(=O)(=O)N2CCC(F)C2)c1F)c1c[nH]c2ncc(-c3cnc(C4CC4)nc3)cc12` (stereo not drawn) [Compound P-0339, N-[3-[5-(2-cyclopropylpyrimidin-5-yl)-1H-pyrrolo[2,3-b]pyridine-3-carbonyl]-2,4-difluoro-phenyl]-3-fluoro-pyrrolidine-1-sulfonamide]: the concentration for half-maximal inhibition (IC50) against B-Raf V600E is below 0.1 µM; in assay [2] it was below 1 µM.

Consider `CN(CC(F)(F)F)S(=O)(=O)Nc1ccc(F)c(C(=O)c2c[nH]c3ncc(-c4cnc(C5CC5)nc4)cc23)c1F` [Compound P-0340, 5-(2-cyclopropylpyrimidin-5-yl)-3-[2,6-difluoro-3-[[methyl(2,2,2-trifluoroethyl)sulfamoyl]amino]benzoyl]-1H-pyrrolo[2,3-b]pyridine], for which the IC50 at B-Raf V600E was below 0.1 µM; in assay [2], below 1 µM.
